The text below walks through data of patent US20040156869A1, “2-substituted quinazolin-4-ylamine analogues” (Neurogen Corporation, priority 2002, published 2004).

In general, pKi refers to −log10 of the Ki, conventionally taken in molar units. Low readings indicate a high Ki, high ones a low Ki.

Each structure is given as a SMILES string. pKi: −log10 of the molar value. Where only a bound is given, the exact number is not on record here.

For the test, the target named is human capsaicin receptor (VR1) (Homo sapiens, UniProt Q8NER1). Nature of the test: Capsaicin receptor binding assay ([3H]RTX competition, VR1-transfected HEK293 membranes).
human capsaicin receptor (VR1), sequence (Q8NER1 whole entry): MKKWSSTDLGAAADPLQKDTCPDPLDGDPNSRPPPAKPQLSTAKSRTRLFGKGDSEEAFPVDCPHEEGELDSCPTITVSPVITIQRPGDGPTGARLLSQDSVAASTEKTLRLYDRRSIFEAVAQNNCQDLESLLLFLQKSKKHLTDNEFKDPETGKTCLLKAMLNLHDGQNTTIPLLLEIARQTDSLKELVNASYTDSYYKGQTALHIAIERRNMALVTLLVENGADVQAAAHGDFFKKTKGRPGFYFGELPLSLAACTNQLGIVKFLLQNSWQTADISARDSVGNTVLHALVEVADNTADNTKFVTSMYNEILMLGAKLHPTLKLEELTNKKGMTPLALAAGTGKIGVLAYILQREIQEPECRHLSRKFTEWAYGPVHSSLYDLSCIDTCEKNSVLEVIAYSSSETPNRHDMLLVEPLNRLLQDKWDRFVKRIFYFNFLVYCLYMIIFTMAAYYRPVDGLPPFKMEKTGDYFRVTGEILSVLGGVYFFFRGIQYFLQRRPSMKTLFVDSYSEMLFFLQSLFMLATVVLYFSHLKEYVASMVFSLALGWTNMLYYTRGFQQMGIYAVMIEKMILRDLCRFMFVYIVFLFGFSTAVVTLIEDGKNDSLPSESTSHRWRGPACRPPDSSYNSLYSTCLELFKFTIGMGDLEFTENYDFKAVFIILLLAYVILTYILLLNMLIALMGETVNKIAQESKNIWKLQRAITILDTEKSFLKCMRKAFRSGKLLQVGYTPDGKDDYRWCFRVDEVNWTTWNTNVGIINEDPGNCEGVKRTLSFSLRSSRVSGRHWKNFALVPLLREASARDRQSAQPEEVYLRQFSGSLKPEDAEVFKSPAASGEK
Experimental: Human embryonic kidney (HEK293) cells were transfected with the pBK-CMV expression construct encoding the full length human capsaicin receptor using standard methods. The transfected cells were selected for two weeks in media containing G418 (400 μg/ml) to obtain a pool of stably transfected cells. Independent clones were isolated from this pool by limiting dilution to obtain clonal stable cell lines for use in subsequent experiments.
For radioligand binding experiments, cells were seeded in T175 cell culture flasks in media without antibiotics and grown to approximately 90% confluency. The flasks were then washed with PBS and harvested in PBS containing 5 mM EDTA. The cells were pelleted by gentle centrifugation and stored at −80° C. until assayed.
Previously frozen cells were disrupted with the aid of a tissue homogenizer in ice-cold HEPES homogenization buffer (5 mM KCl 5, 5.8 mM NaCl, 0.75 mM CaCl2, 2 mM MgCl2, 320 mM sucrose, and 10 mM HEPES pH 7.4). Tissue homogenates were first centrifuged for 10 minutes at 1000×g (4° C.) to remove the nuclear fraction and debris, and then the supernatant from the first centrifugation is further centrifuged for 30 minutes at 35,000×g (4° C.) to obtain a partially purified membrane fraction. Membranes were resuspended in the HEPES homogenization buffer prior to the assay. An aliquot of this membrane homogenate was used to determine protein concentration via the Bradford method (BIO-RAD Protein Assay Kit, #500-0001, BIO-RAD, Hercules, Calif.).
Binding studies with [^3H] […] In this protocol, non-specific RTX binding is reduced by adding bovine alpha1 acid glycoprotein (100 μg per tube) after the binding reaction has been terminated.
Binding assay mixtures are set up on ice and contain [^3H]RTX (specific activity 2200 mCi/ml), 2 μl non-radioactive test compound, 0.25 mg/ml bovine serum albumin (Cohn fraction V), and 5×10^4-1×10^5 VR1-transfected cells. The final volume is adjusted to 500 μl (for competition binding assays) or 1,000 μl (for saturation binding assays) with the ice-cold HEPES homogenization buffer solution (pH 7.4) described above. Non-specific binding is defined as that occurring in the presence of 1 μM non-radioactive RTX (Alexis Corp.; San Diego, Calif.). For saturation binding, [^3H]RTX is added in the concentration range of 7-1,000 pM, using 1 to 2 dilutions. Typically 11 concentration points are collected per saturation binding curve.
Competition binding assays are performed in the presence of 60 pM [^3 H]RTX and various concentrations of test compound. The binding reactions are initiated by transferring the assay mixtures into a 37° C. water bath and are terminated following a 60 minute incubation period by cooling the tubes on ice. Membrane-bound RTX is separated from free, as well as any alpha,-acid glycoprotein-bound RTX, by filtration onto WALLAC glass fiber filters (PERKIN-ELMER, Gaithersburg, Md.) which were pre-soaked with 1.0% PEI (polyethyleneimine) for 2 hours prior to use.
For `COCc1nc(Nc2ccc(C3(C#N)CCC3)cc2)c2ccc(-c3ncccc3C)nc2n1` [Compound 149, 1-{4-[2-Methoxymethyl-7-(3-methyl-pyridin-2-yl)-pyrido[2,3-d]pyrimidin-4-ylamino]-phenyl}-cyclobutanecarbonitrile], the pKi is more than 6.00. Then `CCOCc1nc(Nc2ccc(C3(C#N)CCC3)cc2)c2ccc(-c3ncccc3Cl)nc2n1` [Compound 150, 1-{4-[7-(3-Chloro-pyridin-2-yl)-2-ethoxymethyl-pyrido[2,3-d]pyrimidin-4-ylamino]-phenyl}-cyclobutanecarbonitrile], with more than 6.00; and `Cc1cccnc1-c1ccc2c(Nc3ccc(C4(C#N)CCC4)cc3)nc(COCC(C)C)nc2n1` [Compound 151, 1-{4-[2-Isobutoxymethyl-7-(3-methyl-pyridin-2-yl)-pyrido[2,3-d]pyrimidin-4-ylamino]-phenyl}-cyclobutanecarbonitrile], with more than 6.00. Then `FC(F)(F)c1ccc(Nc2nc(COC3CCOCC3)nc3cc(-c4ncccc4C(F)(F)F)ccc23)cn1` [Compound 154, [2-(Tetrahydro-pyran-4-yloxymethyl)-7-(3-trifluoromethyl-pyridin-2-yl)-quinazolin-4-yl]-(6-trifluoromethyl-pyridin-3-yl)-amine], with more than 6.00. Then `CC(C)(C)c1ccc(Nc2nc(CO)nc3cc(-c4ncccc4C(F)(F)F)ccc23)cc1` [Compound 155, [4-(4-tert-Butyl-phenylamino)-7-(3-trifluoromethyl-pyridin-2-yl)-quinazolin-2-yl]-methanol], with more than 6.00; and `CC(C)c1ccc(Nc2nc(CO)nc3cc(-c4ncccc4C(F)(F)F)ccc23)cc1` [Compound 156, [4-(4-Isopropyl-phenylamino)-7-(3-trifluoromethyl-pyridin-2-yl)-quinazolin-2-yl]-methanol], with more than 6.00. As to `CC(C)(C)c1ccc(Nc2nc(CO)nc3cc(-c4ncccc4Cl)ccc23)cc1` [Compound 157, [4-(4-tert-Butyl-phenylamino)-7-(3-chloro-pyridin-2-yl)-quinazolin-2-yl]-methanol], the pKi was more than 6.00. Then `CC(C)c1ccc(Nc2nc(CO)nc3cc(-c4ncccc4Cl)ccc23)cc1` [Compound 158, [7-(3-Chloro-pyridin-2-yl)-4-(4-isopropyl-phenylamino)-quinazolin-2-yl]-methanol], with more than 6.00. Then `COCc1nc(Nc2ccc(S(=O)(=O)C(F)(F)F)cc2)c2ccc(-c3ncccc3C)nc2n1` [Compound 159, [2-Methoxymethyl-7-(3-methyl-pyridin-2-yl)-pyrido[2,3-d]pyrimidin-4-yl]-(4-trifluoromethanesulfonyl-phenyl)-amine], with more than 6.00; and `COCc1nc(Nc2ccc(C3(C(=O)N4C[C@@H](C)O[C@@H](C)C4)CCC3)cc2)c2ccc(-c3ncccc3C(F)(F)F)nc2n1` [Compound 160, (2,6-Dimethyl-morpholin-4-yl)-(1-{4-[2-methoxymethyl-7-(3-trifluoromethyl-pyridin-2-yl)-pyrido[2,3-d]pyrimidin-4-ylamino]-phenyl}-cyclobutyl)-methanone], with more than 6.00; and `Cc1cccnc1-c1ccc2c(Nc3ccc(C(C)(C)C#N)cc3)nc(COCC(C)C)nc2n1` [Compound 161, 2-{4-[2-Isobutoxymethyl-7-(3-methyl-pyridin-2-yl)-pyrido[2,3-d]pyrimidin-4-ylamino]-phenyl}-2-methyl-propionitrile], with more than 6.00. Then `CC(C)COCc1nc(Nc2ccc(C(C)(C)C)cc2)c2ccc(-c3ncccc3C(F)(F)F)nc2n1` [Compound 162, (4-terr-Butyl-phenyl)-[2-isobutoxymethyl-7-(3-trifluoromethyl-pyridin-2-yl)-pyrido[2,3-d]pyrimidin-4-yl]-amine], with more than 6.00; and `CC(C)COCc1nc(Nc2ccc(C(C)C)cc2)c2ccc(-c3ncccc3C(F)(F)F)nc2n1` [Compound 163, [2-Isobutoxymethyl-7-(3-trifluoromethyl-pyridin-2-yl)-pyrido[2,3-d]pyrimidin-4-yl]-(4-isopropyl-phenyl)-amine], with more than 6.00.

For the compound `CC(C)COCc1nc(Nc2ccc(C(F)(F)F)cc2)c2ccc(-c3ncccc3C(F)(F)F)nc2n1` [Compound 164, [2-Isobutoxymethyl-7-(3-trifluoromethyl-pyridin-2-yl)-pyrido[2,3-d]pyrimidin-4-yl]-(4-trifluoromethyl-phenyl)-amine], the pKi is more than 6.00. Compound `CC(C)COCc1nc(Nc2ccc(C(F)(F)F)nc2)c2ccc(-c3ncccc3C(F)(F)F)nc2n1` [Compound 165, [2-Isobutoxymethyl-7-(3-trifluoromethyl-pyridin-2-yl)-pyrido[2,3-d]pyrimidin-4-yl]-(6-trifluoromethyl-pyridin-3-yl)-amine] showed a negative logarithm of the Ki (pKi) of more than 6.00. The compound `Cc1cc(Nc2nc(COCC(C)C)nc3nc(-c4ncccc4C(F)(F)F)ccc23)ccc1C(F)(F)F` [Compound 166, [2-Isobutoxymethyl-7-(3-trifluoromethyl-pyridin-2-yl)-pyrido[2,3-d]pyrimidin-4-yl]-(3-methyl-4-trifluoromethyl-phenyl)-amine] gave a pKi of more than 6.00.

Take `CC(C)COCc1nc(Nc2ccc(C(C)(C)C#N)cc2)c2ccc(-c3ncccc3C(F)(F)F)nc2n1` [Compound 167, 2-{4-[2-Isobutoxymethyl-7-(3-trifluoromethyl-pyridin-2-yl)-pyrido[2,3-d]pyrimidin-4-ylamino]-phenyl}-2-methyl-propionitrile]: the pKi was more than 6.00. The compound `CC(C)COCc1nc(Nc2ccc(S(=O)(=O)C(F)(F)F)cc2)c2ccc(-c3ncccc3C(F)(F)F)nc2n1` [Compound 168, [2-Isobutoxymethyl-7-(3-trifluoromethyl-pyridin-2-yl)-pyrido[2,3-d]pyrimidin-4-yl]-(4-trifluoromethanesulfonyl-phenyl)-amine] gave a pKi of more than 6.00. Then `CCOC(=O)COCc1nc(Nc2ccc(C(F)(F)F)cc2)c2ccc(-c3ncccc3C(F)(F)F)cc2n1` [Compound 169, [4-(4-Trifluoromethyl-phenylamino)-7-(3-trifluoromethyl-pyridin-2-yl)-quinazolin-2-ylmethoxy]-acetic acid ethyl ester], with more than 6.00; and `OCc1nc(Nc2ccc(C(F)(F)F)cc2)c2ccc(-c3ncccc3C(F)(F)F)nc2n1` [Compound 171, [4-(4-Trifluoromethyl-phenylamino)-7-(3-trifluoromethyl-pyridin-2-yl)-pyrido[2,3-d]pyrimidin-2-yl]-methanol], with more than 6.00; and `CCOC(=O)c1nc(Nc2ccc(C(F)(F)F)cc2)c2ccc(-c3ncccc3C)nc2n1` [Compound 172, 7-(3-Methyl-pyridin-2-yl)-4-(4-trifluoromethyl-phenylamino)-pyrido[2,3-d]pyrimidine-2-carboxylic acid ethyl ester], with more than 6.00. For the compound `CCOC(=O)c1nc(Nc2ccc(C(F)(F)F)cc2)c2ccc(-c3ncccc3C(F)(F)F)nc2n1` [Compound 173, 4-(4-Trifluoromethyl-phenylamino)-7-(3-trifluoromethyl-pyridin-2-yl)-pyrido[2,3-d]pyrimidine-2-carboxylic acid ethyl ester], the pKi is more than 6.00. Then `Cc1cccnc1-c1ccc2c(Nc3ccc(C(F)(F)F)cc3)nc(C3CCOC3)nc2n1` (stereo not shown) [Compound 174, [7-(3-Methyl-pyridin-2-yl)-2-(tetrahydro-furan-3-yl)-pyrido[2,3-d]pyrimidin-4-yl]-(4-trifluoromethyl-phenyl)-amine], with more than 6.00.

The compound `Cc1cccnc1-c1ccc2c(Nc3ccc(C(C)(C)C#N)cc3)nc(C3CCOC3)nc2n1` (stereo not shown) [Compound 175, 2-Methyl-2-{4-[7-(3-methyl-pyridin-2-yl)-2-(tetrahydro-furan-3-yl)-pyrido[2,3-d]pyrimidin-4-ylamino]-phenyl}-propionitrile] showed a pKi of more than 6.00. Then `CC(C)COCc1nc(Nc2ccc(C(F)(F)F)cc2)c2ccc(-c3ncccc3Cl)nc2n1` [Compound 176, [7-(3-Chloro-pyridin-2-yl)-2-isobutoxymethyl-pyrido[2,3-d]pyrimidin-4-yl]-(4-trifluoromethyl-phenyl)-amine], with more than 6.00; and `CC(C)COCc1nc(Nc2ccc(C(F)(F)F)nc2)c2ccc(-c3ncccc3Cl)nc2n1` [Compound 177, [7-(3-Chloro-pyridin-2-yl)-2-isobutoxymethyl-pyrido[2,3-d]pyrimidin-4-yl]-(6-trifluoromethyl-pyridin-3-yl)-amine], with more than 6.00. Then `Cc1cc(Nc2nc(COCC(C)C)nc3nc(-c4ncccc4Cl)ccc23)ccc1C(F)(F)F` [Compound 178, [7-(3-Chloro-pyridin-2-yl)-2-isobutoxymethyl-pyrido[2,3-d]pyrimidin-4-yl]-(3-methyl-4-trifluoromethyl-phenyl)-amine], with more than 6.00. In turn, `CC(C)COCc1nc(Nc2ccc(C(C)(C)C#N)cc2)c2ccc(-c3ncccc3Cl)nc2n1` [Compound 179, 2-{4-[7-(3-Chloro-pyridin-2-yl)-2-isobutoxymethyl-pyrido[2,3-d]pyrimidin-4-ylamino]-phenyl}-2-methyl-propionitrile] had a pKi of more than 6.00. Take `CC(C)COCc1nc(Nc2ccc(OC(F)(F)F)cc2)c2ccc(-c3ncccc3Cl)nc2n1` [Compound 180, [7-(3-Chloro-pyridin-2-yl)-2-isobutoxymethyl-pyrido[2,3-d]pyrimidin-4-yl]-(4-trifluoromethoxy-phenyl)-amine]: the pKi was more than 6.00. Then `CC(C)COCc1nc(Nc2ccc(S(=O)(=O)C(F)(F)F)cc2)c2ccc(-c3ncccc3Cl)nc2n1` [Compound 181, [7-(3-Chloro-pyridin-2-yl)-2-isobutoxymethyl-pyrido[2,3-d]pyrimidin-4-yl]-(4-trifluoromethanesulfonyl-phenyl)-amine], with more than 6.00; and `COCc1nc(Nc2ccc(C(F)(F)F)c(C)c2)c2ccc(-c3ncccc3C(F)(F)F)nc2n1` [Compound 182, [2-Methoxymethyl-7-(3-trifluoromethyl-pyridin-2-yl)-pyrido[2,3-d]pyrimidin-4-yl]-(3-methyl-4-trifluoromethyl-phenyl)-amine], with more than 6.00.
